Measurements taken from patent US9795574B2, “Method for preparing agomelatine cocrystals and composition containing same” (SOONCHUNHYANG UNIVERSITY INDUSTRY ACADEMY COOPERATION …, priority 2014, dated 2017).

How the values were obtained:
[1] = Intrinsic dissolution rate (IDR) of pellets, USP equipment 2 (paddle method); assay type: physicochemical; conditions: for Dissolution rate (intrinsic dissolution rate in terms of ratio): 37° C., 50 rpm, ratio to agomelatine
Protocol: In order to measure the intrinsic dissolution rate (IDR) of agomelatine and the agomelatine-resorcinol co-crystal, 50 mg of agomelatine and 72.63 mg of the agomelatine-resorcinol co-crystal of Example 1 were molded into a number of pellets having a constant surface area and then subjected to a dissolution testing.
Each powder specimen was put in a 13 mm pellet die (Specac, UK), squeezed down under a weight of 0.5 ton for 2 minutes with a hydraulic compressor and then molded into pellets having a constant surface area of 1.33 cm^2.
The pellets thus obtained were immobilized in 900 ml of a testing solution (pH 1.2 HCl aqueous solution and pH 6.8 phosphate-buffer solution) at 37° C., which solution was stirred with USP equipment 2 (paddle method) operated at 50 rpm. Then, the concentration of the agomelatine released from the pellets was measured.
3 ml of the testing solution was collected each time of 3 min, 5 min, 10 min, 15 min, 20 min, 25 min, 30 min, 45 min, 60 min, 75 min, 90 min, 105 min, and 120 min. The concentration (dissolved amount) of agomelatine in the collected solution was measured with UV-3600 (Shimadzu, Japan) spectrochemical analysis equipment.
FIG. 11 presents the results of the dissolution testing for the agomelatine and the agomelatine-resorcinol co-crystal in an aqueous solution of HCl (pH 1.2) and a phosphate-buffered solution (pH 6.8).

[2] = Thermal stability testing: powder kept at 70° C., then X-ray diffraction analysis; assay type: physicochemical
Description: In other words, the antisolvent method of the present invention makes it possible to produce an agomelatine-resorcinol co-crystal with higher stability.

[3] = Medium pH = 1.2 HCl aqueous solution
[4] = Medium pH = 6.8 phosphate-buffer solution

With `COc1ccc2cccc(CCNC(C)=O)c2c1` [Agomelatine, agomelatine] the “Dissolution rate (intrinsic dissolution rate in terms of ratio)” value [1, 3] was 1.0 and the “Dissolution rate (intrinsic dissolution rate in terms of ratio)” value [1, 4] was 1.0.

In the case of “agomelatine-resorcinol co-crystal [Example 1]”, the “Dissolution rate (intrinsic dissolution rate in terms of ratio)” value [1, 3] is reported as 2.3, the “Dissolution rate (intrinsic dissolution rate in terms of ratio)” value [1, 4] is reported as 3.2 and the “dissolution rate higher than agomelatine” value ([1]; acidic medium (pH 1.2)) is reported as 2.3 fold. The “dissolution rate higher than agomelatine” value ([1]; neutral medium (pH 6.8)) was 3.2 fold and the “crystal form after storage (XRD)” value ([2]; kept at 70° C. for 30 days) was “pure crystal form was maintained”.

In the case of “agomelatine-resorcinol co-crystal [Preparation Example 1, reference compound]”, the “crystal form after storage (XRD)” value ([2]; same temperature conditions (70° C.), 7 days) is reported as “deformation occurred”.
